Data taken from ChEMBL document CHEMBL1201862, “PubChem BioAssay data set” (2004).
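1) Cells in 96-well plates. 2) Compound, 48 h, 5 concentrations. 3) Linear interpolation between surrounding doses. 4) Unreached endpoint = highest concentration. GI50 = concentration required for 50% inhibition of growth.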 Activity calls are given as the source filed them. Cut-off read from the data, not from the text of the source: active = GI50 up to about 1.1 µM and inactive = higher.

Key:
Assay in all cases: NCI-60 cell line screen, 48 h
A498 = tested on: A498
SF-295 = tested on: SF-295
RXF 631 = tested on: RXF 631
MOLT-4 = tested on: MOLT-4
Malme-3M = tested on: Malme-3M
HCT-15 = tested on: HCT-15
OVCAR-3 = tested on: OVCAR-3
DMS-114 = tested on: DMS-114
SNB-75 = tested on: SNB-75
U-251 = tested on: U-251
HOP-92 = tested on: HOP-92
M19-MEL = tested on: M19-MEL
IGROV-1 = tested on: IGROV-1
RPMI-8226 = tested on: RPMI-8226
SK-MEL-2 = tested on: SK-MEL-2
OVCAR-5 = tested on: OVCAR-5
NCI-H226 = tested on: NCI-H226
KM12 = tested on: KM12
XF498 = tested on: XF498
HT-29 = tested on: HT-29
OVCAR-4 = tested on: OVCAR-4
HL-60 = tested on: HL-60
SK-MEL-5 = tested on: SK-MEL-5
HCC 2998 = tested on: HCC 2998
K562 = tested on: K562
SK-OV-3 = tested on: SK-OV-3
DLD-1 = tested on: DLD-1
LOX IMVI = tested on: LOX IMVI
KM-20L2 = tested on: KM-20L2
SNB-19 = tested on: SNB-19
EKVX = tested on: EKVX
SF-268 = tested on: SF-268
HOP-62 = tested on: HOP-62
OVCAR-8 = tested on: OVCAR-8
SK-MEL-28 = tested on: SK-MEL-28
NCI-H522 = tested on: NCI-H522
HOP-18 = tested on: HOP-18
NCI-H460 = tested on: NCI-H460
HCT-116 = tested on: HCT-116
LXFL 529 = tested on: LXFL 529
ACHN = tested on: ACHN
SW-620 = tested on: SW-620
SR = tested on: SR
TK-10 = tested on: TK-10
COLO 205 = tested on: COLO 205
UACC-257 = tested on: UACC-257
A549 = tested on: A549
SN12C = tested on: SN12C
UACC-62 = tested on: UACC-62
CAKI-1 = tested on: CAKI-1
M14 = tested on: M14
786-0 = tested on: 786-0
DMS-273 = tested on: DMS-273
NCI-H23 = tested on: NCI-H23
SF-539 = tested on: SF-539
UO-31 = tested on: UO-31
RXF 393 = tested on: RXF 393
CCRF-CEM = tested on: CCRF-CEM

## CN(C)CCNC(=O)c1ccc(Cl)c2c(Nc3ccc(S(N)(=O)=O)cc3)c3ccccc3nc12
A498
  GI50: 2.72 µM (inactive)
SF-295
  GI50: 3.41 µM (inactive)
RXF 631
  GI50: 0.566 µM (active)
MOLT-4
  GI50: 0.198 µM (active)
Malme-3M
  GI50: 3.46 µM (inactive)
HCT-15
  GI50: 2840 nM
OVCAR-3
  GI50: 2.42 µM (inactive)
DMS-114
  GI50: 1.76 µM (inactive)
SNB-75
  GI50: 1.33 µM (inactive)
U-251
  GI50: 2.16 µM (inactive)
HOP-92
  GI50: 1.43 µM (inactive)
M19-MEL
  GI50: 1.63 µM (inactive)
IGROV-1
  GI50: 2.72 µM (inactive)
RPMI-8226
  GI50: 4.5 µM (inactive)
SK-MEL-2
  GI50: 1.75 µM (inactive)
OVCAR-5
  GI50: 2.95 µM (inactive)
NCI-H226
  GI50: 1.45 µM (inactive)
KM12
  GI50: 1.39 µM (inactive)
XF498
  GI50: 0.165 µM (active)
HT-29
  GI50: 1.2 µM (inactive)
OVCAR-4
  GI50: 1.93 µM (inactive)
HL-60
  GI50: 0.553 µM (active)
SK-MEL-5
  GI50: 2.49 µM (inactive)
HCC 2998
  GI50: 3.03 µM (inactive)
K562
  GI50: 0.612 µM (active)
SK-OV-3
  GI50: 2.22 µM (inactive)
DLD-1
  GI50: 1.31 µM (inactive)
LOX IMVI
  GI50: 0.594 µM (active)
KM-20L2
  GI50: 2.68 µM (inactive)
SNB-19
  GI50: 1.84 µM (inactive)
EKVX
  GI50: 5.62 µM (inactive)
SF-268
  GI50: 1.41 µM (inactive)
HOP-62
  GI50: 8.45 µM (inactive)
OVCAR-8
  GI50: 0.65 µM (active)
SK-MEL-28
  GI50: 2.67 µM (inactive)
NCI-H522
  GI50: 0.462 µM (active)
HOP-18
  GI50: 2.2 µM (inactive)
NCI-H460
  GI50: 0.706 µM (active)
HCT-116
  GI50: 0.29 µM (active)
LXFL 529
  GI50: 0.564 µM (active)
ACHN
  GI50: 1.67 µM (inactive)
SW-620
  GI50: 0.173 µM (active)
SR
  GI50: 0.151 µM (active)
TK-10
  GI50: 2.95 µM (inactive)
COLO 205
  GI50: 0.61 µM (active)
UACC-257
  GI50: 3.44 µM (inactive)
A549
  GI50: 2.64 µM (inactive)
SN12C
  GI50: 1.12 µM (active)
UACC-62
  GI50: 1.56 µM (inactive)
CAKI-1
  GI50: 4.54 µM (inactive)
M14
  GI50: 2.34 µM (inactive)
786-0
  GI50: 1.55 µM (inactive)
DMS-273
  GI50: 1.55 µM (inactive)
NCI-H23
  GI50: 2.97 µM (inactive)
SF-539
  GI50: 1.21 µM (inactive)
UO-31
  GI50: 2.38 µM (inactive)

## C=CCNC(=S)NNC(=O)c1c(C)nc2sccn12
SF-295
  GI50: > 100 µM (inactive)
RXF 631
  GI50: > 100 µM (inactive)
MOLT-4
  GI50: > 100 µM (inactive)
Malme-3M
  GI50: > 100 µM (inactive)
HCT-15
  GI50: > 100000 nM
OVCAR-3
  GI50: > 100 µM (inactive)
DMS-114
  GI50: > 100 µM (inactive)
U-251
  GI50: > 100 µM (inactive)
HOP-92
  GI50: 70 µM (inactive)
M19-MEL
  GI50: > 100 µM (inactive)
IGROV-1
  GI50: > 100 µM (inactive)
SK-MEL-2
  GI50: > 100 µM (inactive)
OVCAR-5
  GI50: > 100 µM (inactive)
NCI-H226
  GI50: > 100 µM (inactive)
KM12
  GI50: > 100 µM (inactive)
XF498
  GI50: > 100 µM (inactive)
HT-29
  GI50: > 100 µM (inactive)
HL-60
  GI50: > 100 µM (inactive)
SK-MEL-5
  GI50: > 100 µM (inactive)
HCC 2998
  GI50: > 100 µM (inactive)
K562
  GI50: > 100 µM (inactive)
SK-OV-3
  GI50: > 100 µM (inactive)
DLD-1
  GI50: > 100 µM (inactive)
LOX IMVI
  GI50: > 100 µM (inactive)
KM-20L2
  GI50: > 100 µM (inactive)
SNB-19
  GI50: > 100 µM (inactive)
EKVX
  GI50: > 100 µM (inactive)
SF-268
  GI50: > 100 µM (inactive)
HOP-62
  GI50: > 100 µM (inactive)
OVCAR-8
  GI50: > 100 µM (inactive)
SK-MEL-28
  GI50: > 100 µM (inactive)
NCI-H522
  GI50: > 100 µM (inactive)
HOP-18
  GI50: > 100 µM (inactive)
NCI-H460
  GI50: > 100 µM (inactive)
HCT-116
  GI50: > 100 µM (inactive)
LXFL 529
  GI50: > 100 µM (inactive)
ACHN
  GI50: > 100 µM (inactive)
RXF 393
  GI50: > 100 µM (inactive)
SW-620
  GI50: > 100 µM (inactive)
SR
  GI50: > 100 µM (inactive)
TK-10
  GI50: > 100 µM (inactive)
COLO 205
  GI50: > 100 µM (inactive)
UACC-257
  GI50: > 100 µM (inactive)
A549
  GI50: > 100 µM (inactive)
SN12C
  GI50: > 100 µM (inactive)
UACC-62
  GI50: > 100 µM (inactive)
CAKI-1
  GI50: > 100 µM (inactive)
CCRF-CEM
  GI50: > 100 µM (inactive)
786-0
  GI50: > 100 µM (inactive)
DMS-273
  GI50: > 100 µM (inactive)
NCI-H23
  GI50: > 100 µM (inactive)
SF-539
  GI50: > 100 µM (inactive)
